According to publication PMC11300601, “Zurletrectinib is a next-generation TRK inhibitor with strong intracranial activity against NTRK fusion-positive tumours with on-target resistance to first-generation agents” (British Journal of Cancer, 2024):

Legend:
[1] = molecular target: T1, TRKB (Homo sapiens, UniProt Q16620); test: In vitro HTRF kinase assay, recombinant TRKB; assay type: biochemical; settings: WT, read-out: IC50 against TRKB recombinant kinase
T1 construct: purchased SignalChem Biotech Inc (Richmond, BC, Canada)
T1 sequence (Q16620 32-822): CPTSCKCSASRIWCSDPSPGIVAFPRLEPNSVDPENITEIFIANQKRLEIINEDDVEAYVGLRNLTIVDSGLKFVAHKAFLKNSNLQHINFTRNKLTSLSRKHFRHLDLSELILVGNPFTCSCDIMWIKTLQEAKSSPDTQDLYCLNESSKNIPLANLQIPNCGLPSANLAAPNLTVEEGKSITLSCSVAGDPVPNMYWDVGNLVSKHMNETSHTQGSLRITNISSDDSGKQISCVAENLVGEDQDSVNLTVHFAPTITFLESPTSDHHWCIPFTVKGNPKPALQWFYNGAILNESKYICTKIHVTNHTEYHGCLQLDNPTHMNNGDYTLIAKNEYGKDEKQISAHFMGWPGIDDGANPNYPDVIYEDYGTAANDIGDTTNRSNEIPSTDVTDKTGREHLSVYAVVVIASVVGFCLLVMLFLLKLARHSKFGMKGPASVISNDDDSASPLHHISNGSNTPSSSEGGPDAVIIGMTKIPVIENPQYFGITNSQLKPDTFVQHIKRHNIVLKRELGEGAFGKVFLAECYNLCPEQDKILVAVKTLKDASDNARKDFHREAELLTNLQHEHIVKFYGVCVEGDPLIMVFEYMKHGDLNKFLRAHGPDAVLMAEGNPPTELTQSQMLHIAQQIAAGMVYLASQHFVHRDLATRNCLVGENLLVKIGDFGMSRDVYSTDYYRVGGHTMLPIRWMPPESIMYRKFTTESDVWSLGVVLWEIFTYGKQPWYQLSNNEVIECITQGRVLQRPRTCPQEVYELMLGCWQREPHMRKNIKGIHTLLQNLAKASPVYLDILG
Method: Recombinant kinases were purchased from SignalChem Biotech Inc (Richmond, BC, Canada). In vitro kinase assays were performed following the optimization of the HTRF Kinase Assay (Cisbio). […] ATP concentrations ranged from 1 to 10 µM based on internal optimization.

[2] = test system: Ba/F3 LMNA-NTRK1, TRKA G595R xenografts; test: Ba/F3 LMNA-NTRK1, TRKA G595R subcutaneous xenograft efficacy study; assay type: in vivo, BALB/c nude female mice
Method: KM12 and Ba/F3 LMNA-NTRK1, TRKA G595R xenografts were generated by subcutaneous injection of five and six million cells into the right flank of 6–8 weeks old BALB/c nude female mice, respectively. Treatment with zurletrectinib, selitrectinib and larotrectinib started at tumor reaching around 150 mm^3. Xenografts were randomized into different groups (8 mice per group) based on tumor size and dosed orally with zurletrectinib (0.1, 0.3, 1 mg/kg BID for KM12 models and 0.3, 1, 3 mg/kg BID for Ba/F3 models), selitrectinib (30 mg kg^−1 BID per day) and larotrectinib (30 mg kg^−1 BID) for constant 10 days or 23 days for KM12 or Ba/F3 models, respectively. Eight mice per group were included in each experiment. Randomization was conducted without utilizing a blind method. Tumors were measured twice weekly using calipers and body weight was also assessed twice weekly. At the end of each treatment, animals were euthanized. The vehicles were formulated as follows: were first dissolved in Cremophor EL/ethanol (50:50) as a 4× stock solution, vortexed, sonicated and then diluted to a 1× solution with saline before use.

zurletrectinib
IC50 [1]: 0.145 nM
Tumor growth inhibition compared with selitrectinib ([2]; 1 mg/kg orally twice a day, Ba/F3 LMNA-NTRK1 TRKA G595R xenograft): as effective as a dose of 30 mg/kg of selitrectinib
Tumor growth inhibition compared with selitrectinib ([2]; 3 mg/kg orally twice daily, tumor bearing mice (Fig. 3)): as effective as 30 mg/kg of selitrectinib
